Source: patent US20240360134A1, “PYRAZOLOPYRIMIDINES AND THEIR USES AS PDGFR INHIBITORS” (priority 2021, published 2024)
pIC50: −log10 of the molar value. Read-outs that look alike come from different tables or passages of the source.

Legend:
[1] = target: Tb-labeled inactive PDGFRβ (Homo sapiens (Human), UniProt P09619); experiment: biochemical; format: binding
[2] = target: His6-TEV-PDGFRβ (557-1016) (Homo sapiens (Human), UniProt P09619); experiment: PDGFRβ HTRF Assay; format: biochemical
VEGFR2, unphosphorylated = VEGFR2, unphosphorylated (Homo sapiens (Human), UniProt P35968); experiment: VEGFR ADP GLO assay; format: biochemical; conditions: 5 nM VEGFR2, 1.2 mM ATP, 1 mg/mL Srctide, 180 min
How it was run: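 Unphosphorylated kinase (10 nM 2× solution) pre-incubated 30 min at RT with compounds (11-point, 3-fold, top 10 µM), then reacted 180 min with srctide and ATP (2×: 2 mg/mL, 2.4 mM) in HEPES pH 7.5 buffer. ADP read by luminescence. IC50 from 4-parameter fit, normalized to DMSO and 1 µM TAK-593.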

PDGFRβ = PDGFRβ (Rattus norvegicus (Rat), UniProt Q05030); experiment: PDGFRβ Cellular Assay (PDGFRb P-Y751 HTRF, PDGF-BB stimulated A10 cells); format: cell-based
How it was run: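 Rat A10 cells plated overnight were treated with compound for 3 h, stimulated with rat PDGF-BB (working stock 100 ng/mL in 10% FBS medium) for 10 min, then lysed.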

[3] = 800 μM ATP, 0.5 μM TK-substrate biotin peptide, 30 min pre-incubation, 3 hours reaction, read-out: PDGFR HTRF IC50
[4] = A10 cells, 3 hours compound, 15 ng/mL PDGFbb for 10 minutes, read-out: PDGFR Cellular IC50

His6-TEV-PDGFRβ (557-1016), sequence (P09619 whole entry, looked up): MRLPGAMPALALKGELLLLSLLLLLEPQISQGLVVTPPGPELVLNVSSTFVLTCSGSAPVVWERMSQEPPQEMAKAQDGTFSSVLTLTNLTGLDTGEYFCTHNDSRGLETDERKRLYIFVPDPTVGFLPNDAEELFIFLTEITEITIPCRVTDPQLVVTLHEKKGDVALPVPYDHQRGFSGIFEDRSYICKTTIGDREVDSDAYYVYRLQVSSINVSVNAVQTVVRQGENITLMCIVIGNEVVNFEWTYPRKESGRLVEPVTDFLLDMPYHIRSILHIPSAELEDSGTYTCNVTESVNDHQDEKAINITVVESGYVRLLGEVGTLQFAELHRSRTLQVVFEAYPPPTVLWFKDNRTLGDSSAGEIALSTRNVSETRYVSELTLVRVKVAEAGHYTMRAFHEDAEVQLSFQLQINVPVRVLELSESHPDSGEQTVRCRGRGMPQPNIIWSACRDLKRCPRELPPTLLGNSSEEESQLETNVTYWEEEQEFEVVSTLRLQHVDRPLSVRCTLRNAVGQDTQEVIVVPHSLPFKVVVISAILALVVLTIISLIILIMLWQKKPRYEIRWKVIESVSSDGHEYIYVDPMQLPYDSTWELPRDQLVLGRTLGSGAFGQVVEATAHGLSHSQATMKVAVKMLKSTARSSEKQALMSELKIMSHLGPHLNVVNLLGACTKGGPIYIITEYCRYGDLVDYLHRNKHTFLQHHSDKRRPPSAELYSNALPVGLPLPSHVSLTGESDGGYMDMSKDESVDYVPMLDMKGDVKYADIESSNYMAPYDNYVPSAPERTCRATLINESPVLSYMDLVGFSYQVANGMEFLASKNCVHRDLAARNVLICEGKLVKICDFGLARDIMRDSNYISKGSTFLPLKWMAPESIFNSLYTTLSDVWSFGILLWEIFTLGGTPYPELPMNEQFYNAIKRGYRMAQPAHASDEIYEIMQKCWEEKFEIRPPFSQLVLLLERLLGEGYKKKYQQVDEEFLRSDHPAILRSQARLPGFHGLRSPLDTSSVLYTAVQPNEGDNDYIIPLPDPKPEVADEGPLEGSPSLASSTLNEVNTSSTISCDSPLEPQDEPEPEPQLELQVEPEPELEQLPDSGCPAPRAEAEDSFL
Tb-labeled inactive PDGFRβ, sequence (P09619 whole entry, looked up): as above
VEGFR2, unphosphorylated, sequence (P35968 whole entry, looked up): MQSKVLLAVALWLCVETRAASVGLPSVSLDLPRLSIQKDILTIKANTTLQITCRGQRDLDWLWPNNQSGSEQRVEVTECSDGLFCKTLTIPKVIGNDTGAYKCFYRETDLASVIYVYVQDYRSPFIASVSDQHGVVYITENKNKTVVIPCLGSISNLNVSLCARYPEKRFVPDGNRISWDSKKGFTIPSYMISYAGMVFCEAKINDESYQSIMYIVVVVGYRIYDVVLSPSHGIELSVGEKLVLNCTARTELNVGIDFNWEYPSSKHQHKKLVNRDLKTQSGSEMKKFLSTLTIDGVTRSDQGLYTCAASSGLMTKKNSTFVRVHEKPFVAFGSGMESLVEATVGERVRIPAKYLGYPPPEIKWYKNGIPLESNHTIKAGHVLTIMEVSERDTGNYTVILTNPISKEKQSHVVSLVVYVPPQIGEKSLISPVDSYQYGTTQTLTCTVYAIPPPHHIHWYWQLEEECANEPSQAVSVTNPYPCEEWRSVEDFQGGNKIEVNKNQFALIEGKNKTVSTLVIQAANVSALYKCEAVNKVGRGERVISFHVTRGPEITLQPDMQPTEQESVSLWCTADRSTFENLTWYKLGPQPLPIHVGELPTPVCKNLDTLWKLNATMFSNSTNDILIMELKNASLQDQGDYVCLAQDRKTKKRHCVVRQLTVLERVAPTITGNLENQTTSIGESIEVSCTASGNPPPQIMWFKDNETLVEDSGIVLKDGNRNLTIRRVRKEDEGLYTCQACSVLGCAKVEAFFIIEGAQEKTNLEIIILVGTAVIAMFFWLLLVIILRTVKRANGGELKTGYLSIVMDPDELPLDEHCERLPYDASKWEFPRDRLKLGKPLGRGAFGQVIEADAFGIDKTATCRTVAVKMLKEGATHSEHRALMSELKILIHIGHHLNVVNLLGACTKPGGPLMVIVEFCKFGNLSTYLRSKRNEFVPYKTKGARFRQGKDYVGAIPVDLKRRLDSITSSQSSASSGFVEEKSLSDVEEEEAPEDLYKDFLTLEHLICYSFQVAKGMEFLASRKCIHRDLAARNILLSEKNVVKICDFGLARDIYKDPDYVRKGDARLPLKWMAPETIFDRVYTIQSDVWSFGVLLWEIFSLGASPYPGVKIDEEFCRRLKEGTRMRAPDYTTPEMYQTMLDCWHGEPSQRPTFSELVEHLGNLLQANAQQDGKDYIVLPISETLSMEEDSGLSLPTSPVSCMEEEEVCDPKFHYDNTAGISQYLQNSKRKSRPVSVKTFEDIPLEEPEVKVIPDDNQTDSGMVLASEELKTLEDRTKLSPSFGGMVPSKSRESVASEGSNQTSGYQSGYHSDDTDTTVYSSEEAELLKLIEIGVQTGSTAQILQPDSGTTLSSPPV
PDGFRβ, sequence (Q05030 whole entry, looked up): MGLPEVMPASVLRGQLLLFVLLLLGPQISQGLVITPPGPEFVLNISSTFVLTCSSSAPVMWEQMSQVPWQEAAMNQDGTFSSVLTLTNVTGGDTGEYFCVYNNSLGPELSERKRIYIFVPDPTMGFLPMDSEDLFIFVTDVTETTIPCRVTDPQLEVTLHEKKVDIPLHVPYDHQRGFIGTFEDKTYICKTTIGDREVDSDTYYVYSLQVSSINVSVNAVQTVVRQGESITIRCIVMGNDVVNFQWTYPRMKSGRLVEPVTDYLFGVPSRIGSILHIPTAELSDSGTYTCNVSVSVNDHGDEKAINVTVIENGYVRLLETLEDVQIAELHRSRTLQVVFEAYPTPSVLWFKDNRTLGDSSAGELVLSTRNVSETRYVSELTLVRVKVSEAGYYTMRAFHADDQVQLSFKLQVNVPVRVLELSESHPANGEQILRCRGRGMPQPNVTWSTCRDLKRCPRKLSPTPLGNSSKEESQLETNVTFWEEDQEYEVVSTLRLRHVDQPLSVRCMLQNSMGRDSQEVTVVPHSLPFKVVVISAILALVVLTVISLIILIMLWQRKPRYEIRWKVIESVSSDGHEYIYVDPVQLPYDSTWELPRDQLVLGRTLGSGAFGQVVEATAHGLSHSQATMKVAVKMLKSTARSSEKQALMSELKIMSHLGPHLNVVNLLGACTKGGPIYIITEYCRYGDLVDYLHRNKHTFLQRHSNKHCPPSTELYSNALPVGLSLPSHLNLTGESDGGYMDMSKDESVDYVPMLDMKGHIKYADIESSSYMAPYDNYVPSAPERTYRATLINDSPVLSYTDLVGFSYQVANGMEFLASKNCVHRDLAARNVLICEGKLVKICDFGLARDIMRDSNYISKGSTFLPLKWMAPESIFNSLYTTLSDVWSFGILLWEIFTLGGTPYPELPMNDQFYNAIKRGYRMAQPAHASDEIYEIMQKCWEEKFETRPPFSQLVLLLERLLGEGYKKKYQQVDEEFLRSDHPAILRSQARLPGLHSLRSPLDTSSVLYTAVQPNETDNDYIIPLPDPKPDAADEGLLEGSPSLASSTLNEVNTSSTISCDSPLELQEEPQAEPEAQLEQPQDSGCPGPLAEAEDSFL

Structure (SMILES)	pIC50 ([1]; read-out: PDGFR Lantha IC50)	pIC50 [2, 3]	pIC50 (VEGFR2, unphosphorylated)	pIC50 (PDGFRβ; [4])	pIC50 [1]	pIC50 [2]	pIC50 (PDGFRβ)
Cc1ccc(C(=O)NCCN2CCC3(CC3)C2)cc1Nc1nn(C)c2nc(Nc3cnn(C)c3)ncc12 [Example 67, N-(2-(5-azaspiro[2.4]heptan-5-yl)ethyl)-4-methyl-3-((1-methyl-6-((1-methyl-1H-pyrazol-4-yl)amino)-1H-pyrazolo[3,4-d]pyrimidin-3-yl)amino)benzamide]	8.72	9.66	5.78	8.01	–	–	–
Cc1ncc(C(=O)NCCN2[C@H](C)CCC[C@@H]2C)cc1Nc1nn(C)c2cc(Nc3cnn(C)c3)ncc12 [Example 68, N-(2-((2S,6R)-2,6-dimethylpiperidin-1-yl)ethyl)-6-methyl-5-((1-methyl-6-((1-methyl-1H-pyrazol-4-yl)amino)-1H-pyrazolo[4,3-c]pyridin-3-yl)amino)nicotinamide]	–	–	< 5.12	–	7.47	8.70	6.95
Cc1ncc(C(=O)NCCN2CCCC2(C)C)cc1Nc1nn(C)c2cc(Nc3cnn(C)c3)ncc12 [Example 69, N-(2-(2,2-dimethylpyrrolidin-1-yl)ethyl)-6-methyl-5-((1-methyl-6-((1-methyl-1H-pyrazol-4-yl)amino)-1H-pyrazolo[4,3-c]pyridin-3-yl)amino)nicotinamide]	7.32	8.90	< 5.12	7.43	–	–	–
Cc1ncc(NC(=O)CN2CCCC2(C)C)cc1Nc1nn(C)c2nc(Nc3cnn(C)c3)ncc12 [Example 70, 2-(2,2-dimethylpyrrolidin-1-yl)-N-(6-methyl-5-((1-methyl-6-((1-methyl-1H-pyrazol-4-yl)amino)-1H-pyrazolo[3,4-d]pyrimidin-3-yl)amino)pyridin-3-yl)acetamide]	8.74	9.70	5.21	9.05	–	–	–
Cc1ncc(NC(=O)CN2CC(C)(C)C2)cc1Nc1nn(C)c2nc(Nc3cnn(C)c3)ncc12 [Example 77, 2-(3,3-dimethylazetidin-1-yl)-N-(6-methyl-5-((1-methyl-6-((1-methyl-1H-pyrazol-4-yl)amino)-1H-pyrazolo[3,4-d]pyrimidin-3-yl)amino)pyridin-3-yl)acetamide]	8.72	9.62	5.29	8.62	–	–	–
CC[C@H]1COCCN1CCNC(=O)c1cnc(C)c(Nc2nn(C)c3nc(Nc4cnn(C)c4)ncc23)c1 [Example 81, (S)—N-(2-(3-ethylmorpholino)ethyl)-6-methyl-5-((1-methyl-6-((1-methyl-1H-pyrazol-4-yl)amino)-1H-pyrazolo[3,4-d]pyrimidin-3-yl)amino)nicotinamide]	–	–	5.60	–	8.59	9.38	7.68
Cc1ncc(C(=O)NCCN2CCCC[C@H]2C)cc1Nc1nn(C)c2nc(Nc3cnn(C)c3)ncc12 [Example 82, (R)-6-methyl-5-((1-methyl-6-((1-methyl-1H-pyrazol-4-yl)amino)-1H-pyrazolo[3,4-d]pyrimidin-3-yl)amino)-N-(2-(2-methylpiperidin-1-yl)ethyl)nicotinamide]	–	–	< 5.12	–	8.77	9.74	7.69
COCCN(CCNC(=O)c1cnc(C)c(Nc2nn(C)c3nc(Nc4cnn(C)c4)ncc23)c1)C1CCC1 [Example 84, N-(2-(cyclobutyl(2-methoxyethyl)amino)ethyl)-6-methyl-5-((1-methyl-6-((1-methyl-1H-pyrazol-4-yl)amino)-1H-pyrazolo[3,4-d]pyrimidin-3-yl)amino)nicotinamide]	8.44	9.41	< 5.12	7.95	–	–	–
Cc1ncc(C(=O)NCCN2CC3CCC2CC3)cc1Nc1nn(C)c2nc(Nc3cnn(C)c3)ncc12 [Example 85, N-(2-(2-azabicyclo[2.2.2]octan-2-yl)ethyl)-6-methyl-5-((1-methyl-6-((1-methyl-1H-pyrazol-4-yl)amino)-1H-pyrazolo[3,4-d]pyrimidin-3-yl)amino)nicotinamide]	8.77	9.57	5.18	7.15	–	–	–
Cc1ncc(C(=O)NCCN2CCC(C)(C)C2)cc1Nc1nn(C)c2nc(Nc3cnn(C)c3)ncc12 [Example 86, N-(2-(3,3-dimethylpyrrolidin-1-yl)ethyl)-6-methyl-5-((1-methyl-6-((1-methyl-1H-pyrazol-4-yl)amino)-1H-pyrazolo[3,4-d]pyrimidin-3-yl)amino)nicotinamide]	8.66	9.48	< 5.12	7.74	–	–	–
Cc1ncc(C(=O)NCCN2CC(C)CC(C)C2)cc1Nc1nn(C)c2nc(Nc3cnn(C)c3)ncc12 (stereo not drawn) [Example 87, N-(2-(3,5-dimethylpiperidin-1-yl)ethyl)-6-methyl-5-((1-methyl-6-((1-methyl-1H-pyrazol-4-yl)amino)-1H-pyrazolo[3,4-d]pyrimidin-3-yl)amino)nicotinamide]	8.64	9.54	< 5.12	7.94	–	–	–
CC[C@@H]1CN(CCNC(=O)c2cnc(C)c(Nc3nn(C)c4nc(Nc5cnn(C)c5)ncc34)c2)CCO1 [Example 88, (R)—N-(2-(2-ethylmorpholino)ethyl)-6-methyl-5-((1-methyl-6-((1-methyl-1H-pyrazol-4-yl)amino)-1H-pyrazolo[3,4-d]pyrimidin-3-yl)amino)nicotinamide]	8.52	9.46	< 5.12	7.65	–	–	–
Cc1ncc(C(=O)NCCN2C3CCCC2CCC3)cc1Nc1nn(C)c2nc(Nc3cnn(C)c3)ncc12 [Example 89, N-(2-(9-azabicyclo[3.3.1]nonan-9-yl)ethyl)-6-methyl-5-((1-methyl-6-((1-methyl-1H-pyrazol-4-yl)amino)-1H-pyrazolo[3,4-d]pyrimidin-3-yl)amino)nicotinamide]	8.55	9.48	5.39	7.48	–	–	–
Cc1ncc(C(=O)NCCN2CCC3(CC3)C2)cc1Nc1nn(C)c2nc(Nc3cnn(C)c3)ncc12 [Example 90, N-(2-(5-azaspiro[2.4]heptan-5-yl)ethyl)-6-methyl-5-((1-methyl-6-((1-methyl-1H-pyrazol-4-yl)amino)-1H-pyrazolo[3,4-d]pyrimidin-3-yl)amino)nicotinamide]	8.74	9.60	< 5.12	7.57	–	–	–
Cc1ncc(C(=O)NCCN2C[C@@H](C)O[C@@H](C)C2)cc1Nc1nn(C)c2nc(Nc3cnn(C)c3)ncc12 [Example 91, N-(2-(cis-2,6-dimethylmorpholino)ethyl)-6-methyl-5-((1-methyl-6-((1-methyl-1H-pyrazol-4-yl)amino)-1H-pyrazolo[3,4-d]pyrimidin-3-yl)amino)nicotinamide]	8.38	9.34	< 5.12	7.35	–	–	–
COCCCN(CCNC(=O)c1cnc(C)c(Nc2nn(C)c3nc(Nc4cnn(C)c4)ncc23)c1)C1CCC1 [Example 93, N-(2-(cyclobutyl(3-methoxypropyl)amino)ethyl)-6-methyl-5-((1-methyl-6-((1-methyl-1H-pyrazol-4-yl)amino)-1H-pyrazolo[3,4-d]pyrimidin-3-yl)amino)nicotinamide]	8.42	9.36	< 5.12	7.97	–	–	–
COCCN(CCNC(=O)c1cnc(C)c(Nc2nn(C)c3nc(Nc4cnn(C)c4)ncc23)c1)C1CCCC1 [Example 95, N-(2-(cyclopentyl(2-methoxyethyl)amino)ethyl)-6-methyl-5-((1-methyl-6-((1-methyl-1H-pyrazol-4-yl)amino)-1H-pyrazolo[3,4-d]pyrimidin-3-yl)amino)nicotinamide]	8.47	9.28	< 5.12	8.00	–	–	–
Cc1ncc(C(=O)NCCN(CCCO)C2CCCC2)cc1Nc1nn(C)c2nc(Nc3cnn(C)c3)ncc12 [Example 96, N-(2-(cyclopentyl(3-hydroxypropyl)amino)ethyl)-6-methyl-5-((1-methyl-6-((1-methyl-1H-pyrazol-4-yl)amino)-1H-pyrazolo[3,4-d]pyrimidin-3-yl)amino)nicotinamide]	8.55	9.37	< 5.12	6.86	–	–	–
Cc1ncc(C(=O)NCCN(CCO)C2CCCC2)cc1Nc1nn(C)c2nc(Nc3cnn(C)c3)ncc12 [Example 97, N-(2-(cyclopentyl(2-hydroxyethyl)amino)ethyl)-6-methyl-5-((1-methyl-6-((1-methyl-1H-pyrazol-4-yl)amino)-1H-pyrazolo[3,4-d]pyrimidin-3-yl)amino)nicotinamide]	8.62	9.34	< 5.12	6.99	–	–	–
CC(=O)Nc1cccc(Nc2ncc3c(Nc4cc(C(=O)NCCN5CCCC5(C)C)cnc4C)nn(C)c3n2)c1 [Example 98, 5-((6-((3-acetamidophenyl)amino)-1-methyl-1H-pyrazolo[3,4-d]pyrimidin-3-yl)amino)-N-(2-(2,2-dimethylpyrrolidin-1-yl)ethyl)-6-methylnicotinamide]	7.92	8.70	< 5.12	6.14	–	–	–
CC(=O)Nc1cncc(Nc2ncc3c(Nc4cc(C(=O)NCCN5CCCC5(C)C)cnc4C)nn(C)c3n2)c1 [Example 99, 5-((6-((5-acetamidopyridin-3-yl)amino)-1-methyl-1H-pyrazolo[3,4-d]pyrimidin-3-yl)amino)-N-(2-(2,2-dimethylpyrrolidin-1-yl)ethyl)-6-methylnicotinamide]	8.23	9.18	< 5.12	6.86	–	–	–
